Measurements: patent US8470548B2, “Diagnosis of depression” (Intra-Cellular Therapies, Inc., priority 2006, dated 2013)
Like-named read-outs stand apart in the source and are kept apart here.

Columns and labels:
[1] = test system: p11; experiment: p11 expression in PBMC of monkeys receiving fluoxetine; assay type: in vivo
[2] = target: T1, 5-HT1B receptor (Mus musculus, UniProt P28334); experiment: [35S]GTPγS binding in response to 5-HT1B receptor stimulation; assay type: biochemical; set-up: Cryostat sections (12 μm thick) are made from p11 KO and wild-type mice; from tissue; host or cells: mouse brain cryostat sections (globus pallidus, substantia nigra); wild-type, p11 KO and p11 transgenic mice; conditions: p11 KO mice, 50 μM agonist
T1 sequence (P28334 whole entry): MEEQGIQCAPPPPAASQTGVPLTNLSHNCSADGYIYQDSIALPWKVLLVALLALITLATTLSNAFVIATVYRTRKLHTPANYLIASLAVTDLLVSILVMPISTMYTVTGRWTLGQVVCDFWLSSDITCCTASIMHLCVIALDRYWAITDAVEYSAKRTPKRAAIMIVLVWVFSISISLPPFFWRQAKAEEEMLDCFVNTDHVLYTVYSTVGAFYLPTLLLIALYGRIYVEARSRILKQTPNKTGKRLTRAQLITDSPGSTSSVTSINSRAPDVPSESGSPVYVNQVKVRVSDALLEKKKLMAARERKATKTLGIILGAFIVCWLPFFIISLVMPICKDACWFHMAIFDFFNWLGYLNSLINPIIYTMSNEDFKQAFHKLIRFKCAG
Description: (§1) Fresh cryostat sections (12 μm) from wild-type, p11 KO and p11 transgenic mice are preincubated for 30 min in Tris-HCl 50 mM (pH 7.4) supplemented with 100 mM NaCl, […] 3 mM MgCl2, 0.2 mM EGTA, 2 mM GDP and 1 U/ml adenosine deaminase to remove endogenous adenosine. The sections are thereafter incubated for two hours at 25° C. in the same solution containing 40 pM [^35S]GTP S, with (stimulation condition) or without (basal condition) 50 μM of the 5-HT1A receptor agonist, 8-OH-DPAT, or the 5-HT1B receptor agonist, anpirtoline. Non-specific labeling (background) is determined on autoradiographs from adjacent sections incubated with 10 μM of unlabeled GTP S. Sections are rinsed twice (3 min each) in 50 mM Tris-HCl buffer, once (30 sec) in distilled water to remove the buffer salts, and air-dried. The autoradiographs are obtained by 2-4 days exposure on Biomax MR film. Optical density measurements are obtained in several brain regions with the NIH Image 1.63 image analysis system.

[3] = test system: immobility; experiment: Tail suspension test; assay type: in vivo; conditions: p11 KO mice compared with wild-type mice after acute treatment, 15 minutes postinjection
Description: The tail suspension test, a model of antidepressant-like activity, is carried out as described (S11) and is a modified version of that validated for C57B16 (S12) and NMRI mice (S13). Mice are individually suspended by the tail to a horizontal bar (distance from floor is 35 cm) using adhesive tape (distance from tip of tail is 2 cm). […] A 6-min test session is videotaped and scored by an observer who is unaware of the genotype. The parameter recorded is the number of seconds spent immobile. In experiments with anpirtoline (5 mg/kg) and imipramine (10 mg/kg), animals are tested 15 minutes postinjection.

[4] = test system: phospho-Ser9-synapsin I; experiment: Western blotting of phosphorylated synapsin I in brain slices; assay type: cell-based; conditions: striatal slices from p11 KO mice, 50 μM, 2 min
Description: Slices (300 μm) from the striatum are prepared from wild-type and p11 KO mice as described (S10). The slices are preincubated in Krebs buffer (118 mM NaCl/4.7 mM KCl/1.5 mM […]/1.2 mM KH2PO4/25 mM NaHCO3/11.7 mM glucose/1.3 mM CaCl2) at 30° C. under constant oxygenation (95% O2/5% CO2) for 60 min, with a change of buffer after […]. Slices are treated with vehicle or anpirtoline (50 μM) for 2 min. After drug treatment, the buffer is removed, the slices are rapidly frozen on dry ice, sonicated in 1% SDS and boiled for 10 min. Small aliquots of the homogenate are retained for protein determination by the bicinchoninic acid protein assay method. Equal amounts of protein are processed by using 10% acrylamide gels. Immunoblotting is carried out with a phosphorylation-state-specific rabbit polyclonal antibody against phospho-Ser9-synapsin I, a site that is phosphorylated by PKA and CamKII, or a rabbit polyclonal synapsin antibody that is not phosphorylation-state-specific. Antibody binding is detected by enhanced chemiluminescence and quantified by densitometry, using National Institutes of Health IMAGE 1.63 software. The level of the phosphorylated form of synapsin is normalized to its total level. All data are presented as normalized levels.

[5] = test system: phospho-Thr202/Tyr204-ERK1/2; experiment: Western blotting of phosphorylated ERK1/2 in primary cortical cultures; assay type: cell-based; conditions: primary cortical cultures from p11 KO mice, 10 μM, 15 minutes
Description: Cortices are removed from E18 mice generated from WT×WT or p11KO×p11KO breedings, trypsinized (0.25%), dissociated by trituration and plated onto poly-L-lysine (1 mg/ml) coated six-well plates. The cultures (500,000 cells/ml) are grown in medium containing DMEM with 5% fetal bovine serum, 4 mM L-glutamine, B-27 nutrient supplement, penicillin (5 U/ml), and streptomycin (5 μg/ml). After two weeks, the cultures are treated with vehicle, serotonin (10 μM) or anpirtoline (10 μM) for 15 minutes. At the end of the treatment, the drug-containing medium is removed, the wells rinsed in ice-cold PBS, the neurons removed by a cell scraper and frozen in liquid nitrogen. Frozen cell samples are sonicated in 1% SDS and boiled for 10 min. Small aliquots of the homogenate are retained for protein determination by the bicinchoninic acid protein assay method. Equal amounts of protein are processed by using 10% acrylamide gels, as described (S10). Immunoblotting is carried out with a phosphorylation-state-specific antibody against phospho-Thr202/Tyr204-ERK1/2 or an antibody that is not phosphorylation-state-specific against total ERK1/2. Antibody binding is detected by enhanced chemiluminescence and quantified by densitometry, using National Institutes of Health IMAGE 1.63 software. The level of the phosphorylated form of ERK1/2 is normalized to its total level. All data are presented as normalized levels.

[6] = test system: thigmotaxis; experiment: Open-field analysis (thigmotaxis); assay type: in vivo; conditions: wild-type mice treated long-term with imipramine; anpirtoline 5 mg/kg i.p., 15 min postinjection
Description: Horizontal activities are measured for 30 minutes (results are analyzed every 5 min period) during daytime in a fully computerized, multicage, red and infrared-sensitive motion detection system. The peripheral activity values are divided […] by the total horizontal activity values to determine thigmotaxis. In experiments with anpirtoline (5 mg/kg, i.p.) animals are tested 15 min postinjection. Some anpirtolinetreated mice had received daily injections with imipramine (10 mg/kg, i.p.) for 4 weeks until the day before the experiment.

[7] = target: T1, 5-HT1B receptor; experiment: Quantitative receptor autoradiography, [125I]cyanopindolol binding and serotonin displacement; set-up: Cryostat sections (12 μm thick) are made from p11 KO and wild-type mice; from tissue; host or cells: mouse brain cryostat sections (globus pallidus, substantia nigra); wild-type, p11 KO and p11 transgenic mice; species or system mice
Description: Cryostat sections (12 μm thick) are made from p11 KO and wild-type mice. 5-HT1B receptors are detected by incubating the sections in 170 mM Tris/150 mM NaCl pH 7.4 (25° C.) containing the antagonist [^125I]cyanopindolol (0.3, 1, 3, 10, 30, 100 pM; 2200 Ci/mmol), 100 nM 8-OH-DPAT as a 5-HT1A blocker, and 30 μM isoproterenol, as β-adrenergic receptor blocker, for two hours (S9). Non-specific binding is determined by measurements in the presence of 100 μM serotonin. In displacement experiments, increasing concentrations of serotonin (0, 0.3, 1, 3, 10, 30, 100, 300, 1000, 10000 nM) are incubated with 10 pM [^125I]cyanopindolol as described above. […] At the end of all autoradiographic experiments, sections are rinsed 2×5 min in their corresponding cold binding buffers, dipped in distilled water at 4° C. and dried under cold air. The sections are apposed to Biomax MR films for 3-5 days ([^125I]cyanopindolol) or 4-10 weeks ([^3H]GR125743, [^3H]8-OHDPAT, ^3H]SCH23390, [^3H]raclopride) together with ^[125I] or [^3H] microscales. Optical density measurements are obtained in several brain regions with the NIH Image 1.63 image analysis system. Specific binding is calculated by digital subtraction of nonspecific labeling from total binding. Standard curves generated from [^3H] or [^125I] microscales are used to convert optical densities into femtomoles per milligram of protein. Data obtained from saturation and displacement experiments are analyzed using non-linear regression equations.

[8] = test system: p11 mRNA; conditions: mice, 14 day treatment, once daily i.p., killed 1 hour after last injection
Description: For some experiments, brains from p11 KO mice and their wild-type counterparts are used. […] Animals are killed 1 hour after the last injection.
In situ hybridization probes are made by PCR amplification of nucleotides 1159-1420 of the coding sequence of the rat 5-HT1B receptor gene, nucleotides 1-293 of the coding sequence of the mouse or human p11 genes and nucleotides 1-287 of the coding sequence of the rat p11 gene, respectively. The different PCR fragments are subcloned into the pCRII-TOPO vector. With the exception of the studies on human tissue, 12-μm-thick cryostat sections are made for all studies. Sections are hybridized with [□^−35S]UTP-labeled riboprobe repared by in vitro transcription from cDNA corresponding to the rat 5-HT1B receptor gene or mouse, rat or human p11 gene as previously described (S5). After hybridization, the sections are exposed to Biomax MR film for 7 to 24 days and analyzed using the NIH Image 1.63 software. Unless indicated, analyses are made in the prelimbic/anterior cingulate cortex. Some sections are dipped into Ilford K5 emulsion for cellular analysis. After 8 weeks, the sections are developed, Nissl-stained and mounted.

[9] = target: T1, 5-HT1B receptor; experiment: Electrophysiology, fEPSP/PS in nucleus accumbens slices, serotonin; conditions: slices from WT mice; serotonin 50 μM in the presence of 10 μM fluoxetine
Description: (§2) Male p11 KO and wild-type mice (4-7 weeks old) are decapitated under fluorothane anesthesia. Their brains are rapidly removed and coronal brain slices (400 μm thick), containing the nucleus accumbens, are prepared with a microslicer. Slices are incubated, for at least 1 h, at 32° C. in oxygenated (95% O2+5% CO2) artificial cerebrospinal fluid (aCSF) containing (in mM): 126 NaCl, 2.5 KCl, 1.2 NaH2PO4, 1.3 MgCl2, 2.4 CaCl2, 10 glucose and 26 NaHCO3, pH 7.4. Slices are transferred to a recording chamber mounted on an upright microscope and are continuously perfused with oxygenated aCSF at 28° C. Extracellular field potentials are recorded using a glass micropipette filled with aCSF positioned on the slice surface in the nucleus accumbens. Signals are amplified 500 times via an Axopatch 200B amplifier acquired at 10 kHz, filtered at 2 kHz and recorded on a Computer using acquisition and pClamp9 data analysis software. Synaptic responses are evoked with a concentric bipolar stimulating electrode placed near the recording electrode on the surface of the slice. […] Single stimuli (0.1 ms duration) are applied every 15 sec at an intensity yielding 50-70% maximal response as assessed by a stimulus/response curve established for each slice examined by measuring the amplitude of the field potential evoked by increasing stimulus intensities. […] Numerical values are expressed as means […]SEM. […]

[10] = target: T2, 5-HT1B receptor (Homo sapiens, UniProt P28222); experiment: cAMP measurements in COS 7 cells; assay type: cell-based
T2 construct: V5 (C); expressed in transfected cells; host or cells: COS 7
T2 sequence (P28222 whole entry): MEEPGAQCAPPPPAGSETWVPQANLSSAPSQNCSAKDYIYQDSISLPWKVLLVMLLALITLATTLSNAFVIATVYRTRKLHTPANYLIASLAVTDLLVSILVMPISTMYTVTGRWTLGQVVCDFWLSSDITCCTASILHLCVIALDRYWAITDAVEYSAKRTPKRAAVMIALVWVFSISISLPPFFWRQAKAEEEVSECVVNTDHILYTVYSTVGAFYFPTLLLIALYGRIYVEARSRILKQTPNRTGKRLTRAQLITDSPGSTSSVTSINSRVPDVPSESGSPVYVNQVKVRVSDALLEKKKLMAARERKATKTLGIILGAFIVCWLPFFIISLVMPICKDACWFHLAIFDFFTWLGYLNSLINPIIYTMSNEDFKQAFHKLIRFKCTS
Description: COS 7 cells grown in DMEM medium are transfected with 5-HT1B receptors and/or p11. Thirty six hours later the cells are pretreated with theophylline (5 mM) and pargyline (10 μM) for 15 min. Vehicle or forskolin (10 μM) with or without serotonin (10 μM), is then added for another 15 minutes. At the end of the treatment, the drug-containing medium is removed, the wells rinsed in PBS and the cells harvested. cAMP formation is quantitated by a direct cAMP enzyme immunoassay kit according to the manufacturers instructions.

[11] = test system: AMPA receptors; experiment: Electrophysiology, fEPSP/PS in nucleus accumbens slices, CNQX; set-up: species or system mice; conditions: 15 min after CNQX
Description: as §2

[12] = target: T3, 5-HT1A receptor (Mus musculus, UniProt Q64264); experiment: [35S]GTPγS binding in response to 5-HT1A receptor stimulation; assay type: biochemical, mice; conditions: 50 μM agonist
T3 construct: Fresh cryostat sections (12 μm) from wild-type, p11 KO and p11 transgenic mice; from tissue; host or cells: mouse brain cryostat sections
T3 sequence (Q64264 1-421): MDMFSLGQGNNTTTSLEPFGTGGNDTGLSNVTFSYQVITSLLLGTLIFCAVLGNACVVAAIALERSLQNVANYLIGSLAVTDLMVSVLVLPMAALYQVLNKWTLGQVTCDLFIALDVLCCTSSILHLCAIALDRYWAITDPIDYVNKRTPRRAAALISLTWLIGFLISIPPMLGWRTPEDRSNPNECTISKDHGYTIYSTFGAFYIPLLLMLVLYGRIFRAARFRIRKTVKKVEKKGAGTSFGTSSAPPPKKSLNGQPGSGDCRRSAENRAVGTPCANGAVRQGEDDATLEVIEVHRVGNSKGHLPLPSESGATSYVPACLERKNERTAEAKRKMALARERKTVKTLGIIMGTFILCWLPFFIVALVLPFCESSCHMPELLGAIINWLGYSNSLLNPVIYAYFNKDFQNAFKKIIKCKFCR
Description: as §1

`CNCCC(Oc1ccc(C(F)(F)F)cc1)c1ccccc1` (centres unmarked) [fluoxetine] was tested, and the “increase in p11 expression in peripheral blood mononuclear cells (PBMC)” value [1] was “more than twofold”.

With `Clc1cccc(SC2CCNCC2)n1` [anpirtoline] the “ability to increase [35S]GTP-S binding in globus pallidus” value [2] was “reduced ability”, the “immobility in the tail suspension test” value [3] was “increased immobility” and the “decrease of phospho-Ser9-synapsin I” value [4] was “loss of ability”. The “down-regulation of phospho-Thr202/Tyr204-ERK1/2 levels” value [5] was “loss of ability” and the thigmotaxis [6] was “significant reduction in thigmotaxis”.

In the case of `CC(C)(C)NCC(O)COc1cccc2[nH]c(C#N)c([125I])c12` (centres unmarked) [[^125I]iodocyanopindolol], the “binding in substantia nigra pars reticulata” value ([7]; p11 KO mice) is reported as 77.3±5.8 fmol/mg protein and the “binding in substantia nigra pars reticulata” value ([7]; wild-type mice) is reported as 98.8±6.2 fmol/mg protein.

For `Cc1nc2n(c(=O)c1CCN1CCC(c3noc4cc(F)ccc34)CC1)CCCC2` [risperidone], the “p11 mRNA in the forebrain” value [8] was “not”.

`NCCc1c[nH]c2ccc(O)cc12` [serotonin, 5-hydroxy-tryptamine] was tested, and the “amplitude of the fEPSP/PS” value [9] was “depresses the amplitude”, the EC50 [7] was 52 nM and the EC50 ([7]; median effective concentration (EC50) to displace bound [125I]iodocyanopindolol, wild-type mice, brain sections) was 57 nM. For the same molecule, the “down-regulation of phospho-Thr202/Tyr204-ERK1/2 levels” value [5] was “loss of ability”, the “ability to counteract forskolin-induced cAMP formation” value ([10]; COS-7 cells transfected with the 5-HT1B receptor, in the presence of cotransfected p11, serotonin (10 µM)) was “increased” and the “cAMP formation in untransfected COS 7 cells” value ([10]; control experiments, untransfected cells) was “does not alter cAMP formation”.

For `N#Cc1cc2c(cc1[N+](=O)[O-])=NC(=O)C(=O)N=2` [CNQX, 6-cyano-7-nitroquinoxaline-2,3-dione], the “f EPSP/population spike (PS) reduction compared with baseline” value ([11]; p11 KO mice) was 81% and the “f EPSP/population spike (PS) reduction compared with baseline” value ([11]; wild-type mice) was 77%.

For `CN(C)CCCN1c2ccccc2CCc2ccccc21` [imipramine], the “immobility in the tail suspension test” value [3] was “increased immobility” and the “p11 mRNA in the forebrain” value [8] was “upregulation of p11 mRNA”.

`CCCN(CCC)C1CCc2cccc(O)c2C1` (racemic) [8-OH-DPAT, (+/−)-8-hydroxy-2-(di-n-propylamino)tetralin] was tested, and the “[35S]GTP-S binding” value ([12]; p11 KO mice) was 5.0±2.0 optical density units and the “[35S]GTP-S binding” value ([12]; wild-type mice) was 6.0±2.1 optical density units.

For `O=C(CCCN1CCC(O)(c2ccc(Cl)cc2)CC1)c1ccc(F)cc1` [haloperidol], the “p11 mRNA in the forebrain” value [8] was “not”.

`N[C@@H]1C[C@H]1c1ccccc1` (racemic) [tranylcypromine] was tested, and the “p11 mRNA in the forebrain” value [8] was “upregulation of p11 mRNA”.
